Reference: patent publication US10214542B2, “Modified macrocyclic compounds” (BAYER PHARMA AKTIENGESELLSCHAFT, priority 2015, dated 2019)

Tests used:
CDK9/CycT1 = target: T1, CDK9/CycT1 (Homo sapiens, UniProt P50750); assay: CDK9/CycT1 kinase assay (TR-FRET, Method 1a); assay type: biochemical; settings: 10 μM ATP; for IC50: Method 1a; for Selectivity CDK9 over CDK2: IC50 (CDK2)/IC50 (CDK9): Methods 1a and 2a
T1 construct: Recombinant full-length His-tagged human CDK9 and CycT1; His; purchased Invitrogen PV4131; host or cells: insect cells
T1 sequence (P50750 whole entry): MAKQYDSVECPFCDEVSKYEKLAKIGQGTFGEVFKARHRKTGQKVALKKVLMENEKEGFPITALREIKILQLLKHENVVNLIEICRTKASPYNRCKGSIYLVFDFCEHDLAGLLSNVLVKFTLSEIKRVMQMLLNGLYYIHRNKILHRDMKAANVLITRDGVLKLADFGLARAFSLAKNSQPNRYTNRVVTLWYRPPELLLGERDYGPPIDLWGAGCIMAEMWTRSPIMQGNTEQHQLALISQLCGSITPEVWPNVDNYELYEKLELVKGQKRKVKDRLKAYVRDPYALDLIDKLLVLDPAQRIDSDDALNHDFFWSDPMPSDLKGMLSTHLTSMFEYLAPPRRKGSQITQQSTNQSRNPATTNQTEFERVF
T1 sequence (O60563 whole entry partner): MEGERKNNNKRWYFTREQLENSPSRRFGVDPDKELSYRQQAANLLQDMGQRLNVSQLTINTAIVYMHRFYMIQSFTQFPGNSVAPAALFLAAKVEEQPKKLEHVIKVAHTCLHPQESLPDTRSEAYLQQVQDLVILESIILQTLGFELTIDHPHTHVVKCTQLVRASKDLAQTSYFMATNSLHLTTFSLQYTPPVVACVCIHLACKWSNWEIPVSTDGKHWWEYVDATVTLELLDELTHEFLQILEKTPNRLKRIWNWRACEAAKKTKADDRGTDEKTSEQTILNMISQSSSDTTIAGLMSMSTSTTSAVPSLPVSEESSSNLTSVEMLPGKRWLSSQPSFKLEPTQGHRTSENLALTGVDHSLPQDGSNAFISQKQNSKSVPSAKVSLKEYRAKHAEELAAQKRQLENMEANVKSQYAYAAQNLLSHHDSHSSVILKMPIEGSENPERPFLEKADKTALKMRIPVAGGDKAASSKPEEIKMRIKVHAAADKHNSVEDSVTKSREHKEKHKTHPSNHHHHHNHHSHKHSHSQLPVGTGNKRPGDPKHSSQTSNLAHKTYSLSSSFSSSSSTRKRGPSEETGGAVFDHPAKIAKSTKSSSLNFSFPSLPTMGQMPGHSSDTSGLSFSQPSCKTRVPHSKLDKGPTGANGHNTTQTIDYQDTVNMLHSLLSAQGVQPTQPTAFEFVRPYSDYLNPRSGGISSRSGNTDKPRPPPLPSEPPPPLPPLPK
Source text: 1a. CDK9/CycT1 Kinase Assay:
CDK9/CycT1-inhibitory activity of compounds of the present invention was quantified employing the CDK9/CycT1 TR-FRET assay as described in the following paragraphs:
Recombinant full-length His-tagged human CDK9 and CycT1, expressed in insect cells and purified by Ni-NTA affinity chromatography, were purchased from Invitrogen (Cat. No PV4131). As substrate for the kinase reaction biotinylated peptide biotin-Ttds-YISPLKSPYKISEG (C-terminus in amid form) was used which can be purchased e.g. from the company JERINI Peptide Technologies (Berlin, Germany).
(§1) For the assay 50 nl of a 100 fold concentrated solution of the test compound in DMSO was pipetted into a black low volume 384 well microtiter plate (Greiner Bio-One, Frickenhausen, Germany), 2 μl of a solution of CDK9/CycT1 in aqueous assay buffer [50 mM Tris/HCl pH 8.0, 10 mM MgCl2, 1.0 mM dithiothreitol, 0.1 mM sodium ortho-vanadate, 0.01% (v/v) Nonidet-P40 (Sigma)] were added and the mixture was incubated for 15 min at 22° C. to allow pre-binding of the test compounds to the enzyme before the start of the kinase reaction. […] The concentration of CDK9/CycT1 was adjusted depending of the activity of the enzyme lot and was chosen appropriate to have the assay in the linear range, typical concentrations were in the range of 1 μg/mL. The reaction was stopped by the addition of 5 μl of a solution of TR-FRET detection reagents (0.2 μM streptavidine-XL665 [Cisbio Bioassays, Codolet, France] and 1 nM anti-RB(pSer807/pSer811)-antibody from BD Pharmingen [#558389] and 1.2 nM LANCE EU-W1024 labeled anti-mouse IgG antibody [Perkin-Elmer, product no. AD0077]) in an aqueous EDTA-solution (100 mM EDTA, 0.2% (w/v) bovine serum albumin in 100 mM HEPES pH 7.5).
(§2) The resulting mixture was incubated 1 h at 22° C. to allow the formation of complex between the phosphorylated biotinylated peptide and the detection reagents. Subsequently the amount of phosphorylated substrate was evaluated by measurement of the resonance energy transfer from the Eu-chelate to the streptavidine-XL. Therefore, the fluorescence emissions at 620 nm and 665 nm after excitation at 350 nm was measured in a HTRF reader, e.g. a Rubystar (BMG Labtechnologies, Offenburg, Germany) or a Viewlux (Perkin-Elmer). The ratio of the emissions at 665 nm and at […] was taken as the measure for the amount of phosphorylated substrate. The data were normalised (enzyme reaction without inhibitor=0% inhibition, all other assay components but no enzym=100% inhibition).

CDK2/CycE = target: T2, CDK2/CycE (Homo sapiens, UniProt P24941); assay: CDK2/CycE kinase assay (TR-FRET, Method 2a); assay type: biochemical; settings: 10 μM ATP
T2 construct: GST; purchased ProQinase GmbH (Freiburg, Germany); host or cells: insect cells (Sf9)
Source text: 2a. CDK2/CycE Kinase Assay:
CDK2/CycE-inhibitory activity of compounds of the present invention was quantified employing the CDK2/CycE TR-FRET assay as described in the following paragraphs:
Recombinant fusion proteins of GST and human CDK2 and of GST and human CycE, expressed in insect cells (Sf9) and purified by Glutathion-Sepharose affinity chromatography, were purchased from ProQinase GmbH (Freiburg, Germany). As substrate for the kinase reaction biotinylated peptide biotin-Ttds-YISPLKSPYKISEG (C-terminus in amid form) was used which can be purchased e.g. from the company JERINI Peptide Technologies (Berlin, Germany).
as §1, with “CDK2/CycE” for “CDK9/CycT1”, “130 ng/mL.” for “1 μg/mL.”
as §2, with “TR-FRET” for “HTRF”

SMILES | IC50 (CDK9/CycT1) [nM] | Selectivity CDK9 over CDK2: IC50 (CDK2)/IC50 (CDK9) (CDK9/CycT1) | IC50 (CDK2/CycE) [nM]
CS(=N)(=O)Cc1cc2nc(c1)OCCCCCc1cc(F)ccc1-c1cc(ncc1F)N2 (racemic) [Example 20, (rac)-2,19-difluoro-9-[(S-methylsulfonimidoyl)methyl]-14,15,16,17-tetrahydro-6H,13H-7,11-(azeno)-5,1-(metheno)-12,4,6-benzoxadiazacyclononadecine] | 5.5 | 29.5 | 162
CSCc1cc2nc(c1)OCCCCCc1cc(F)ccc1-c1cc(ncc1F)N2 [Example 18, 2,19-difluoro-9-[(methylsulfanyl)methyl]-14,15,16,17-tetrahydro-6H,13H-7,11-(azeno)-5,1-(metheno)-12,4,6-benzoxadiazacyclononadecine] | 99 | 25.9 | 2560
CC(C)(C)OC(=O)N=S(C)(=O)Cc1cc2cc(c1)OCCCCNc1cc(F)ccc1-c1nc(ncc1F)N2 (racemic) [Example 15, (rac)-tert-butyl[{[16,20-difluoro-2,3,4,5-tetrahydro-1H,12H-13,17-(azeno)-11,7-(metheno)-6,1,12,14-benzoxatriazacyclononadecin-9-yl]methyl}(methyl)oxido-λ^6-sulfanylidene]carbamate] | 8.9 | 29.4 | 262
CSCc1cc2nc(c1F)N(C)CCCCOc1cc(F)ccc1-c1cc(ncc1F)N2 [Example 12, 8,16,20-trifluoro-6-methyl-9-[(methylsulfanyl)methyl]-3,4,5,6-tetrahydro-2H,12H-11,7-(azeno)-13,17-(metheno)-1,6,12,14-benzoxatriazacyclononadecine] | 25 | 1.1 | 27
CS(=O)(Cc1cc2nc(c1)Nc1cc(c(F)cn1)-c1ccc(F)cc1OCCCCN2)=NC(=O)OCc1ccccc1 (racemic) [Example 2, (rac)-Benzyl[{[16,20-difluoro-3,4,5,6-tetrahydro-2H,12H-11,7-(azeno)-13,17-(metheno)-1,6,12,14-benzoxatriazacyclononadecin-9-yl]methyl}(methyl)oxido-λ^6-sulfanylidene]carbamate] | 14.7 | 47.5 | 698
C[S+]([O-])Cc1cc2nc(c1)OCCCCc1cc(F)ccc1-c1cc(ncc1F)N2 (racemic) [Example 5, (rac)-2,18-Difluoro-9-[(methylsulfinyl)methyl]-13,14,15,16-tetrahydro-6H-7,11-(azeno)-5,1-(metheno)-12,4,6-benzoxadiazacyclooctadecine] | 6.2 | 44.4 | 275
CS(=N)(=O)Cc1cc2nc(c1)Nc1cc(c(F)cn1)-c1ccc(F)cc1OCCCN2 (racemic) [Example 8, (rac)-15,19-difluoro-8-[(S-methylsulfonimidoyl)methyl]-2,3,4,5-tetrahydro-11H-10,6-(azeno)-16,12-(metheno)-1,5,11,13-benzoxatriazacyclooctadecine] | 2.7 | 3.4 | 9.1
